# Key:
# persian speedwell [1] = assay: Test Example 5: herbicidal effect by foliage application, plastic box (Table 20, symbol R); type: in vivo, Persian speedwell (Veronica persica); details: amount of applied herbicide 320 g/ha; foliage application after 14-day growth; evaluated three weeks after application
# Method in brief: (§1)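 Plants sown in sterilized diluvial soil and grown 14 days in a greenhouse at 25° C to 30° C, then sprayed on the foliage with the compound's emulsion diluted in water to a predetermined herbicide amount. Injury to weeds and crops scored three weeks after application on a visual rating scale.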
# barnyard grass [2] = assay: Test Example 4: herbicidal effect by soil treatment (Table 19, symbol H); type: in vivo, barnyard grass (Echinochloa crus-galli); details: amount of applied herbicide 320 g/ha
# Method in brief: (§2)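 Three weeks of greenhouse growth at 25° C. to 30° C. followed a uniform surface spray of water-diluted emulsion at a predetermined herbicide amount. Seeds had been sown beforehand under about 1.5 cm of sterilized diluvial soil. Grading followed criteria set out in an earlier test.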
# persian speedwell [3] = assay: Test Example 4: herbicidal effect by soil treatment (Table 19, symbol R); type: in vivo, Persian speedwell (Veronica persica); details: amount of applied herbicide 320 g/ha
# Method in brief: as §2
# wild oat [4] = assay: Test Example 5: herbicidal effect by foliage application, plastic box (Table 20, symbol I); type: in vivo, wild oat (Avena fatua); details: amount of applied herbicide 320 g/ha; foliage application after 14-day growth; evaluated three weeks after application
# Method in brief: as §1
# Chinese sprangletop = assay: Test Example 3: herbicidal effect by foliage application, Wagner pot (Table 18, symbol D); type: in vivo, chinese sprangletop (Leptochloa chinensis); details: 320 g/ha
# Method in brief: (§3)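 Plants were sown in alluvial soil held under 0.1–0.5 cm standing water and grown 14 days in a greenhouse at 25–30 °C. An emulsifiable formulation, water-diluted to the set dose, was then sprayed onto the foliage, and effects were scored three weeks later using previously defined criteria.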
# lambsquarters [5] = assay: Test Example 4: herbicidal effect by soil treatment (Table 19, symbol O); type: in vivo, lambsquarters (Chenopodium album); details: amount of applied herbicide 320 g/ha
# Method in brief: as §2
# wild oat [6] = assay: Test Example 4: herbicidal effect by soil treatment (Table 19, symbol I); type: in vivo, wild oat (Avena fatua); details: amount of applied herbicide 320 g/ha
# Method in brief: as §2
# Japanese bulrush = assay: Test Example 1: herbicidal activity, application before weed generation under submerged conditions (Table 16, symbol B); type: in vivo, Japanese bulrush (Schoenoplectus juncoides); details: amount of applied herbicide 320 g/ha
# Method in brief: (§4)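 Submerged Wagner pots (alluvial soil, 4 cm water) sown with weed seeds and planted with 2.5-leaf rice seedlings; emulsifiable concentrate diluted in water applied to water surface on sowing day. Held in greenhouse at 25-30 °C; injury scored 0-5 by herbicidal rate after three weeks.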
# Italian ryegrass [7] = assay: Test Example 5: herbicidal effect by foliage application, plastic box (Table 20, symbol K); type: in vivo, Italian ryegrass (Lolium multiflorum); details: amount of applied herbicide 320 g/ha; foliage application after 14-day growth; evaluated three weeks after application
# Method in brief: as §1
# redroot pigweed [8] = assay: Test Example 5: herbicidal effect by foliage application, plastic box (Table 20, symbol N); type: in vivo, redroot pigweed (Amaranthus retroflexus); details: amount of applied herbicide 320 g/ha; foliage application after 14-day growth; evaluated three weeks after application
# Method in brief: as §1
# southern crabgrass [9] = assay: Test Example 4: herbicidal effect by soil treatment (Table 19, symbol F); type: in vivo, southern crabgrass (Digitaria ciliaris); details: amount of applied herbicide 320 g/ha
# Method in brief: as §2
# windgrass [10] = assay: Test Example 4: herbicidal effect by soil treatment (Table 19, symbol L); type: in vivo, windgrass (Apera spica-venti); details: amount of applied herbicide 320 g/ha
# Method in brief: as §2
# chickweed [11] = assay: Test Example 5: herbicidal effect by foliage application, plastic box (Table 20, symbol P); type: in vivo, common chickweed (Stellaria media); details: amount of applied herbicide 320 g/ha; foliage application after 14-day growth; evaluated three weeks after application
# Method in brief: as §1
# velvetleaf [12] = assay: Test Example 4: herbicidal effect by soil treatment (Table 19, symbol M); type: in vivo, velvetleaf (Abutilon theophrasti); details: amount of applied herbicide 320 g/ha
# Method in brief: as §2
# blackgrass [13] = assay: Test Example 4: herbicidal effect by soil treatment (Table 19, symbol J); type: in vivo, blackgrass (Alopecurus myosuroides); details: amount of applied herbicide 320 g/ha
# Method in brief: as §2
# rice flat sedge = assay: Test Example 3: herbicidal effect by foliage application, Wagner pot (Table 18, symbol E); type: in vivo, rice flat sedge (Cyperus iria); details: 320 g/ha
# Method in brief: as §3
# blackgrass [14] = assay: Test Example 5: herbicidal effect by foliage application, plastic box (Table 20, symbol J); type: in vivo, blackgrass (Alopecurus myosuroides); details: amount of applied herbicide 320 g/ha; foliage application after 14-day growth; evaluated three weeks after application
# Method in brief: as §1
# late watergrass = assay: Test Example 1: herbicidal activity, application before weed generation under submerged conditions (Table 16, symbol A); type: in vivo, late watergrass (Echinochloa oryzicola); details: amount of applied herbicide 320 g/ha
# Method in brief: as §4
# southern crabgrass [15] = assay: Test Example 5: herbicidal effect by foliage application, plastic box (Table 20, symbol F); type: in vivo, southern crabgrass (Digitaria ciliaris); details: amount of applied herbicide 320 g/ha; foliage application after 14-day growth; evaluated three weeks after application
# Method in brief: as §1
# windgrass [16] = assay: Test Example 5: herbicidal effect by foliage application, plastic box (Table 20, symbol L); type: in vivo, windgrass (Apera spica-venti); details: amount of applied herbicide 320 g/ha; foliage application after 14-day growth; evaluated three weeks after application
# Method in brief: as §1
# green foxtail [17] = assay: Test Example 5: herbicidal effect by foliage application, plastic box (Table 20, symbol G); type: in vivo, green foxtail (Setaria viridis); details: amount of applied herbicide 320 g/ha; foliage application after 14-day growth; evaluated three weeks after application
# Method in brief: as §1
# barnyard grass [18] = assay: Test Example 3: herbicidal effect by foliage application, Wagner pot (Table 18, symbol H); type: in vivo, barnyard grass (Echinochloa crus-galli); details: 320 g/ha
# Method in brief: as §3
# velvetleaf [19] = assay: Test Example 5: herbicidal effect by foliage application, plastic box (Table 20, symbol M); type: in vivo, velvetleaf (Abutilon theophrasti); details: amount of applied herbicide 320 g/ha; foliage application after 14-day growth; evaluated three weeks after application
# Method in brief: as §1
# redroot pigweed [20] = assay: Test Example 4: herbicidal effect by soil treatment (Table 19, symbol N); type: in vivo, redroot pigweed (Amaranthus retroflexus); details: amount of applied herbicide 320 g/ha
# Method in brief: as §2
# green foxtail [21] = assay: Test Example 4: herbicidal effect by soil treatment (Table 19, symbol G); type: in vivo, green foxtail (Setaria viridis); details: amount of applied herbicide 320 g/ha
# Method in brief: as §2
# Italian ryegrass [22] = assay: Test Example 4: herbicidal effect by soil treatment (Table 19, symbol K); type: in vivo, Italian ryegrass (Lolium multiflorum); details: amount of applied herbicide 320 g/ha
# Method in brief: as §2
# barnyard grass [23] = assay: Test Example 5: herbicidal effect by foliage application, plastic box (Table 20, symbol H); type: in vivo, barnyard grass (Echinochloa crus-galli); details: amount of applied herbicide 320 g/ha; foliage application after 14-day growth; evaluated three weeks after application
# Method in brief: as §1
# chickweed [24] = assay: Test Example 4: herbicidal effect by soil treatment (Table 19, symbol P); type: in vivo, common chickweed (Stellaria media); details: amount of applied herbicide 320 g/ha
# Method in brief: as §2
# oval-leafed pondweed = assay: Test Example 1: herbicidal activity, application before weed generation under submerged conditions (Table 16, symbol C); type: in vivo, oval-leafed pondweed (Monochoria vaginalis); details: amount of applied herbicide 320 g/ha
# Method in brief: as §4
# false cleavers [25] = assay: Test Example 4: herbicidal effect by soil treatment (Table 19, symbol Q); type: in vivo, false cleavers (Galium spurium); details: amount of applied herbicide 320 g/ha
# Method in brief: as §2
# false cleavers [26] = assay: Test Example 5: herbicidal effect by foliage application, plastic box (Table 20, symbol Q); type: in vivo, false cleavers (Galium spurium); details: amount of applied herbicide 320 g/ha; foliage application after 14-day growth; evaluated three weeks after application
# Method in brief: as §1
# lambsquarters [27] = assay: Test Example 5: herbicidal effect by foliage application, plastic box (Table 20, symbol O); type: in vivo, lambsquarters (Chenopodium album); details: amount of applied herbicide 320 g/ha; foliage application after 14-day growth; evaluated three weeks after application
# Method in brief: as §1
smiles,measurement,setting,value
CCCC(=O)Oc1c(C)nn(C)c(=O)c1-c1c(-c2ccccc2OCC)sc2cc(F)c(F)cc12 [5-017],"Herbicidal effect by foliage application, R: persian speedwell",persian speedwell [1],5 (Herbicidal rate of 90% or more (almost completely withered))
same,"H: barnyard grass, herbicidal effect grade",barnyard grass [2],4 (Herbicidal rate of 70% or more and less than 90%)
same,"R: persian speedwell, herbicidal effect grade",persian speedwell [3],5 (Herbicidal rate of 90% or more (almost completely withered))
same,"Herbicidal effect by foliage application, I: wild oat",wild oat [4],3 (Herbicidal rate of 40% or more and less than 70%)
same,herbicidal effect on Chinese sprangletop (D),Chinese sprangletop,0 (Herbicidal rate of 5% or less (almost no effect))
same,"O: lambsquarters, herbicidal effect grade",lambsquarters [5],4 (Herbicidal rate of 70% or more and less than 90%)
same,"I: wild oat, herbicidal effect grade",wild oat [6],3 (Herbicidal rate of 40% or more and less than 70%)
same,"Herbicidal effect, B: Japanese bulrush",Japanese bulrush,2 (Herbicidal rate of 20% or more and less than 40%)
same,"Herbicidal effect by foliage application, K: Italian ryegrass",Italian ryegrass [7],0 (Herbicidal rate of 5% or less (almost no effect))
same,"Herbicidal effect by foliage application, N: redroot pigweed",redroot pigweed [8],2 (Herbicidal rate of 20% or more and less than 40%)
same,"F: southern crabgrass, herbicidal effect grade",southern crabgrass [9],4 (Herbicidal rate of 70% or more and less than 90%)
same,"L: windgrass, herbicidal effect grade",windgrass [10],2 (Herbicidal rate of 20% or more and less than 40%)
same,"Herbicidal effect by foliage application, P: chickweed",chickweed [11],5 (Herbicidal rate of 90% or more (almost completely withered))
same,"M: velvetleaf, herbicidal effect grade",velvetleaf [12],3 (Herbicidal rate of 40% or more and less than 70%)
same,"J: blackgrass, herbicidal effect grade",blackgrass [13],0 (Herbicidal rate of 5% or less (almost no effect))
same,herbicidal effect on rice flat sedge (E),rice flat sedge,5 (Herbicidal rate of 90% or more (almost completely withered))
same,"Herbicidal effect by foliage application, J: blackgrass",blackgrass [14],4 (Herbicidal rate of 70% or more and less than 90%)
same,"Herbicidal effect, A: late watergrass",late watergrass,3 (Herbicidal rate of 40% or more and less than 70%)
same,"Herbicidal effect by foliage application, F: southern crabgrass",southern crabgrass [15],1 (Herbicidal rate of 5% or more and less than 20%)
same,"Herbicidal effect by foliage application, L: windgrass",windgrass [16],3 (Herbicidal rate of 40% or more and less than 70%)
same,"Herbicidal effect by foliage application, G: green foxtail",green foxtail [17],0 (Herbicidal rate of 5% or less (almost no effect))
same,herbicidal effect on barnyard grass (H),barnyard grass [18],5 (Herbicidal rate of 90% or more (almost completely withered))
same,"Herbicidal effect by foliage application, M: velvetleaf",velvetleaf [19],4 (Herbicidal rate of 70% or more and less than 90%)
same,"N: redroot pigweed, herbicidal effect grade",redroot pigweed [20],5 (Herbicidal rate of 90% or more (almost completely withered))
same,"G: green foxtail, herbicidal effect grade",green foxtail [21],4 (Herbicidal rate of 70% or more and less than 90%)
same,"K: Italian ryegrass, herbicidal effect grade",Italian ryegrass [22],0 (Herbicidal rate of 5% or less (almost no effect))
same,"Herbicidal effect by foliage application, H: barnyard grass",barnyard grass [23],3 (Herbicidal rate of 40% or more and less than 70%)
same,"P: chickweed, herbicidal effect grade",chickweed [24],4 (Herbicidal rate of 70% or more and less than 90%)
same,"Herbicidal effect, C: oval-leafed pondweed",oval-leafed pondweed,2 (Herbicidal rate of 20% or more and less than 40%)
same,"Q: false cleavers, herbicidal effect grade",false cleavers [25],4 (Herbicidal rate of 70% or more and less than 90%)
same,"Herbicidal effect by foliage application, Q: false cleavers",false cleavers [26],5 (Herbicidal rate of 90% or more (almost completely withered))
same,"Herbicidal effect by foliage application, O: lambsquarters",lambsquarters [27],1 (Herbicidal rate of 5% or more and less than 20%)

# Reference: patent US20230085307A1, “PYRIDAZINONE COMPOUND AND HERBICIDE” (NISSAN CHEMICAL CORPORATION, priority 2019, published 2023)
